Patent US20090030065A1, “Use of Pde1c and Inhibitors Thereof” (NYCOMED GmbH, priority 2005, published 2009)
pIC50: −log10 of the molar value.

How the values were obtained:
Format in all cases: biochemical
[1] = target: human recombinant PDE3A1 (Homo sapiens, UniProt Q14432); assay: Inhibition of recombinant PDE activity, SPA test: PDE3A1; conditions: human recombinant enzyme; read-out: IC50 on PDE 3A1
Procedure: (§1) Measurement of the Inhibition of Phosphodiesterase Activity Phosphodiesterase activity is measured in a modified SPA (scintillation proximity assay) test, supplied by Amersham Biosciences (see procedural instructions “phosphodiesterase [3H]cAMP SPA enzyme assay, code TRKQ 7090”), carried out in 96-well microtitre plates (MTP's): The test volume is 100 μl and contains 20 mM Tris buffer (pH 7.4), 0.1 mg of BSA (bovine serum albumin)/ml, 5 mM Mg^2+, 0.5 μM cGMP or cAMP (including about 50,000 cpm of [3H]cGMP or [3H]cAMP as a tracer; whether to use cAMP or cGMP depends on the substrate-specificity of the phosphodiesterase measured), 1 μl of the respective substance dilution in DMSO and sufficient recombinant PDE to ensure that 10-20% of the cGMP or cAMP is converted under the said experimental conditions. […] After a preincubation of 5 min at 37° C., the reaction is started by adding the substrate (cGMP) and the assay is incubated for a further 15 min; after that, it is stopped by adding SPA beads (50 μl). […] After the beads have been sedimented (>30 min), the MTP's are analyzed in commercially available luminescence detection devices. The corresponding IC50 values of the compounds for the inhibition of PDE activity are determined from the concentration-effect curves by means of non-linear regression.
(§2) Compound A and B are analyzed for inhibition of PDE family members as described.

[2] = target: human recombinant PDE2A3 (Homo sapiens, UniProt O00408); assay: Inhibition of recombinant PDE activity, SPA test: PDE2A3; conditions: human recombinant enzyme; read-out: IC50 on PDE 2A3
Chain of human recombinant PDE2A3 (O00408 whole entry): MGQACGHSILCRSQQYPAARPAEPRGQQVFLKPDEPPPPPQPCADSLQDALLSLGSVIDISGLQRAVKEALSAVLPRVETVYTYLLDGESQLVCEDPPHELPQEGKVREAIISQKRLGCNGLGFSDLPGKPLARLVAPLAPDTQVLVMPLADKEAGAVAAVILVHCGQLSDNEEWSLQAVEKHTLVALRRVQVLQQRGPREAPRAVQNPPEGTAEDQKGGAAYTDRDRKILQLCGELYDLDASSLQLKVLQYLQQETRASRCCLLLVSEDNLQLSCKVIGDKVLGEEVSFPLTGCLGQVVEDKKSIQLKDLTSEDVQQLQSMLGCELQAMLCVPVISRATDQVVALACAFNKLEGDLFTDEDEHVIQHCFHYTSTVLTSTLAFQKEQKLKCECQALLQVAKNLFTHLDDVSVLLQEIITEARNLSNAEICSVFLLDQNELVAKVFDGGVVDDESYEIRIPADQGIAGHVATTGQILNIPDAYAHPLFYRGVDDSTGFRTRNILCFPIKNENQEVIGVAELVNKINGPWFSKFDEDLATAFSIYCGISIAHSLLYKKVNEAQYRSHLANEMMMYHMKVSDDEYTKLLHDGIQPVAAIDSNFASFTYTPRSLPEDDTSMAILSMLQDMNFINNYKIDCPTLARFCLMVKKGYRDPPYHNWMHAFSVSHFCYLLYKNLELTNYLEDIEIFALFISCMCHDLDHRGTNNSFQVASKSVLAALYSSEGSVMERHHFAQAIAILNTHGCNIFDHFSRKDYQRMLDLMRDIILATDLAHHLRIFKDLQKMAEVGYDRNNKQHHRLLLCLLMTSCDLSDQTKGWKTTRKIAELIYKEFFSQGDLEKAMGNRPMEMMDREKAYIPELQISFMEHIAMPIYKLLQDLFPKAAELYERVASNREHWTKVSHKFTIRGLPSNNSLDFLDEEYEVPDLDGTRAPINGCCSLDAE
Procedure: as §1, §2

[3] = target: human recombinant PDE10A (Homo sapiens, UniProt Q9Y233); assay: Inhibition of recombinant PDE activity, SPA test: PDE10A; conditions: human recombinant enzyme; read-out: IC50 on PDE 10A
Chain of human recombinant PDE10A (Q9Y233 290-1055 limits assumed): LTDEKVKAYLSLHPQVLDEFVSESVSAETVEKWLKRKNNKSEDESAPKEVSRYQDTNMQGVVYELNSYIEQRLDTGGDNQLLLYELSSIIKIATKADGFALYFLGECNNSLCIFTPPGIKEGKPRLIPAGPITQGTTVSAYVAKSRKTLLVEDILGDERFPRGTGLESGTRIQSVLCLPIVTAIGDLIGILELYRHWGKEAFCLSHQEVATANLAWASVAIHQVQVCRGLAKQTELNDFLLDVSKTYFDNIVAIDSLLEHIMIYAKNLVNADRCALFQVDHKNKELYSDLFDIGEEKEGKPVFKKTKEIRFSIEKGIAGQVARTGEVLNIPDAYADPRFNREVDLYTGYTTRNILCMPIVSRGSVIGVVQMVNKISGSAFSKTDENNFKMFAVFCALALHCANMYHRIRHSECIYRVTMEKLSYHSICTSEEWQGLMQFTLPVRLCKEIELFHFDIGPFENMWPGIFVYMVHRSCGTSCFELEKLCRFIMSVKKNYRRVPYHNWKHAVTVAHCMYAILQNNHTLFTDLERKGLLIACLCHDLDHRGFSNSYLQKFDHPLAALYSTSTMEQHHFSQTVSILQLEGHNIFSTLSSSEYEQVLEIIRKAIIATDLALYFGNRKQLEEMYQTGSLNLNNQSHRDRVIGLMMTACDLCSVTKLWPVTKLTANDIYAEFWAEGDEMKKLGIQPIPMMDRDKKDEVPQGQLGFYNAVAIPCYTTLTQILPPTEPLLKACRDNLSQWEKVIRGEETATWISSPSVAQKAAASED
Procedure: as §1, §2

[4] = target: human recombinant PDE5A1 (Homo sapiens, UniProt O76074); assay: Inhibition of recombinant PDE activity, SPA test: PDE5A1; conditions: human recombinant enzyme; read-out: IC50 on PDE 5A1
Procedure: as §1, §2

[5] = target: human recombinant PDE4B2 (Homo sapiens, UniProt Q07343); assay: Inhibition of recombinant PDE activity, SPA test: PDE4B2; conditions: human recombinant enzyme; read-out: IC50 on PDE 4B2
Chain of human recombinant PDE4B2 (Q07343 1-564 isoform Q07343-2): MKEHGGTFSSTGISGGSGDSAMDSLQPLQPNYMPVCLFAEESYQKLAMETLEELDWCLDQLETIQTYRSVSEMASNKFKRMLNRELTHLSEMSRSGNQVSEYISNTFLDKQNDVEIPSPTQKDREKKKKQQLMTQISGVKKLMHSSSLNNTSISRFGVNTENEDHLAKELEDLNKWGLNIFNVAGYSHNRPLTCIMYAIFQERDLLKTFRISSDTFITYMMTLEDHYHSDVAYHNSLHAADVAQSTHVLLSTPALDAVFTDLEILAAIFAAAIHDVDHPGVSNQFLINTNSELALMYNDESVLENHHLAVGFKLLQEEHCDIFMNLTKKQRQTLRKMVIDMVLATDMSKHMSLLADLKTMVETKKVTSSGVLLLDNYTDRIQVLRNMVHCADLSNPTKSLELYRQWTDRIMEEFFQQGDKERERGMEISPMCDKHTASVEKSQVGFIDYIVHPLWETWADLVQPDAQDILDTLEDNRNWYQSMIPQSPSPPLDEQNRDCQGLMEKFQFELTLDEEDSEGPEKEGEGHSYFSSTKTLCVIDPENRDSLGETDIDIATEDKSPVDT
Procedure: as §1, §2

[6] = target: human recombinant PDE1C1 (Homo sapiens, UniProt Q14123); assay: Inhibition of recombinant PDE activity, SPA test: PDE1C1; conditions: for pIC50: human recombinant enzyme, read-out: IC50 on PDE 1C1; for Selectivity for PDE1C1 versus other PDE family members tested: see Tab. 1
Chain of human recombinant PDE1C1 (Q14123 1-634 isoform Q14123-2): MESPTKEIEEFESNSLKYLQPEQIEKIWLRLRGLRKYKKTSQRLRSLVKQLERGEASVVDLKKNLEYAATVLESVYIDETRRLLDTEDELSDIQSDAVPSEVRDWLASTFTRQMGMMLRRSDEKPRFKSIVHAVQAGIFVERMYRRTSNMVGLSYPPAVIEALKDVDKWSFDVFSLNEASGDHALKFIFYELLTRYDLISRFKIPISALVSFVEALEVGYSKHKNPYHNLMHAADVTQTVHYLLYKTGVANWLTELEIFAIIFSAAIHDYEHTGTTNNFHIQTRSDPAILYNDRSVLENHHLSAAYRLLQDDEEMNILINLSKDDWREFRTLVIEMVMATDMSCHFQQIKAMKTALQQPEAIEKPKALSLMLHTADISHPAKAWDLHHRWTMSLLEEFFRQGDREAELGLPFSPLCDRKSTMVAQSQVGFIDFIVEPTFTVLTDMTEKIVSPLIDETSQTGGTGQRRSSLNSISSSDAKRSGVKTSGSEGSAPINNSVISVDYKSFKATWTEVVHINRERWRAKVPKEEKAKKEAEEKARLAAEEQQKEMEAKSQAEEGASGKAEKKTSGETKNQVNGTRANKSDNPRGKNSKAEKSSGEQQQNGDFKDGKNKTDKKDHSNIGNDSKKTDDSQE
Procedure: Measurement of the Inhibition of Phosphodiesterase Activity Phosphodiesterase activity is measured in a modified SPA (scintillation proximity assay) test, supplied by Amersham Biosciences (see procedural instructions “phosphodiesterase [3H]cAMP SPA enzyme assay, code TRKQ 7090”), carried out in 96-well microtitre plates (MTP's): The test volume is 100 μl and contains 20 mM Tris buffer (pH 7.4), 0.1 mg of BSA (bovine serum albumin)/ml, 5 mM Mg^2+, 0.5 μM cGMP or cAMP (including about 50,000 cpm of [3H]cGMP or [3H]cAMP as a tracer; whether to use cAMP or cGMP depends on the substrate-specificity of the phosphodiesterase measured), 1 μl of the respective substance dilution in DMSO and sufficient recombinant PDE to ensure that 10-20% of the cGMP or cAMP is converted under the said experimental conditions. […] After a preincubation of 5 min at 37° C., the reaction is started by adding the substrate (cGMP) and the assay is incubated for a further 15 min; after that, it is stopped by adding SPA beads (50 μl). In accordance with the manufacturer's instructions, the SPA beads had previously been resuspended in water, but were then diluted 1:3 (v/v) in water; the diluted solution also contains 3 mM IBMX to ensure a complete PDE activity stop. After the beads have been sedimented (>30 min), the MTP's are analyzed in commercially available luminescence detection devices. The corresponding IC50 values of the compounds for the inhibition of PDE activity are determined from the concentration-effect curves by means of non-linear regression.
as §2

[7] = target: human recombinant PDE11A4 (Homo sapiens, UniProt Q9HCR9); assay: Inhibition of recombinant PDE activity, SPA test: PDE11A4; conditions: human recombinant enzyme; read-out: IC50 on PDE 11A4
Chain of human recombinant PDE11A4 (Q9HCR9 whole entry): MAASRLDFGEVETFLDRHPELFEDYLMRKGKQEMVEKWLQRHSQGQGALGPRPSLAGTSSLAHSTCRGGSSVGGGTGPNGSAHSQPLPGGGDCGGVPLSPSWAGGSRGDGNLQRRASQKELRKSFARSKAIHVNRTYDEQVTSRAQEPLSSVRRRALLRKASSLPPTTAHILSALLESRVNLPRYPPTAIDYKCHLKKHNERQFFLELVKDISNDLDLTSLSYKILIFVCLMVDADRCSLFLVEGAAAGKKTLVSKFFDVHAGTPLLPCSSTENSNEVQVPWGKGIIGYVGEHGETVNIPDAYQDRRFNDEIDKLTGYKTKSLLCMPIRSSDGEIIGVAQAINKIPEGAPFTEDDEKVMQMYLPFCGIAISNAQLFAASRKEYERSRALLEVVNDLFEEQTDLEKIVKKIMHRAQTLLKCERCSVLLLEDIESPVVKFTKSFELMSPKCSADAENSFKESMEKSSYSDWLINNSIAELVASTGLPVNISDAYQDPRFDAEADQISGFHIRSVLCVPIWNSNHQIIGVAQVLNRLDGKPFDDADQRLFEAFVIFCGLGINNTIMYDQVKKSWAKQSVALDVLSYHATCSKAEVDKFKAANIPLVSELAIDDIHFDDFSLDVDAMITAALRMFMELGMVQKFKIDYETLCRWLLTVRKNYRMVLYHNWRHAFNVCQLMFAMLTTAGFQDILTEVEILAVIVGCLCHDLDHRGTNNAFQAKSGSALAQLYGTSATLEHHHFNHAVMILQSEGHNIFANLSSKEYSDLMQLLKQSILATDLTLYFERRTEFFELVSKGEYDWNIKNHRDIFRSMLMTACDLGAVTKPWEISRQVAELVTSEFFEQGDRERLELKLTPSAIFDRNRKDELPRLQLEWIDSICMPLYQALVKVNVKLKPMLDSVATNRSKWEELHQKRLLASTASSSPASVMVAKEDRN
Procedure: as §1, §2

[8] = system: PDE4; assay: PDE isoenzyme activities in cellular lysates: PDE4; conditions: 1 μM, 0.5 μM cyclic AMP
Procedure: (§3) Cells (1-3×10^6) were washed twice in phosphate buffered saline (4° C.) and resuspended in 1 ml homogenization buffer (137 mM NaCl, 2.7 mM KCl, 8.1 mM Na2HPO4, 1.5 mM KH2PO4, 10 mM HEPES, 1 mM EGTA, 1 mM MgCl2, 1 mM-mercaptoethanol, […], […], 50 mM phenylmethylsulfonyl fluoride, 10 mM soybean trypsin inhibitor, 2 mM benzamidine, pH 8.2). Cells were disrupted by sonication (Branson sonifier, 3×15 s) and lysates were immediately used for phosphodiesterase (PDE) activity measurements. PDE activities were assessed in cellular lysates as described (Thompson & Appleman, 1979) with some modifications (Bauer & Schwabe, 1980). The assay mixture (final volume […]) contained (mM): Tris HCl 30; pH 7.4, MgCl2 5, 0.5 μM either cyclic AMP or cyclic GMP as substrate including [^3H]cAMP or [^3H]cGMP (about 30 000 c.p.m. per well), […], PDE isoenzyme-specific activators and inhibitors as described below and cellular lysates. Incubations were performed for 60 min at 37° C. and reactions were terminated by adding […] 0.2 M HCl per well. Assays were left on ice for 10 min and then […] 5′-nucleotidase (Crotalus atrox) was added. […] Columns were eluted with 2 ml 30 mM ammonium formiate (pH 6.0) and radioactivity in the eluate was counted. […] Briefly, PDE4 was calculated as the difference of PDE activities at 0.5 μM cyclic AMP in the presence and absence of 1 μM Piclamilast. […]

[9] = target: T1, PDE5 (Homo sapiens, UniProt O76074); assay: PDE isoenzyme activities in cellular lysates: PDE5; conditions: 100 nM, 0.5 μM cyclic GMP
T1 construct: PDE activities were assessed in cellular lysates; endogenous in cells
Procedure: Cells (1-3×10^6) were washed twice in phosphate buffered saline (4° C.) and resuspended in 1 ml homogenization buffer (137 mM NaCl, 2.7 mM KCl, 8.1 mM Na2HPO4, 1.5 mM KH2PO4, 10 mM HEPES, 1 mM EGTA, 1 mM MgCl2, 1 mM-mercaptoethanol, 5 mM pepstatin A, 10 mM leupeptin, 50 mM phenylmethylsulfonyl fluoride, 10 mM soybean trypsin inhibitor, 2 mM benzamidine, pH 8.2). Cells were disrupted by sonication (Branson sonifier, 3×15 s) and lysates were immediately used for phosphodiesterase (PDE) activity measurements. PDE activities were assessed in cellular lysates as described (Thompson & Appleman, 1979) with some modifications (Bauer & Schwabe, 1980). The assay mixture (final volume 200 ml) contained (mM): Tris HCl 30; pH 7.4, MgCl2 5, 0.5 μM either cyclic AMP or cyclic GMP as substrate including [^3H]cAMP or [^3H]cGMP (about 30 000 c.p.m. per well), 100 mM EGTA, PDE isoenzyme-specific activators and inhibitors as described below and cellular lysates. Incubations were performed for 60 min at 37° C. and reactions were terminated by adding 50 ml 0.2 M HCl per well. Assays were left on ice for 10 min and then 25 mg 5′-nucleotidase (Crotalus atrox) was added. Following an incubation for 10 min at 37° C. assay mixtures were loaded onto QAE-Sephadex A25 columns (1 ml bed volume). Columns were eluted with 2 ml 30 mM ammonium formiate (pH 6.0) and radioactivity in the eluate was counted. […]

[10] = target: T2, PDE2 (Homo sapiens, UniProt O00408); assay: PDE isoenzyme activities in cellular lysates: PDE2; conditions: 100 nM
T2 construct: endogenous in cells
T2 sequence (O00408 whole entry): as the sequence (O00408 whole entry) above
Procedure: as §3

[11] = system: PDE3; assay: PDE isoenzyme activities in cellular lysates: PDE3; conditions: 10 μM, 0.5 μM cyclic AMP
Procedure: as §3

Chain of human recombinant PDE3A1 (Q14432 whole entry): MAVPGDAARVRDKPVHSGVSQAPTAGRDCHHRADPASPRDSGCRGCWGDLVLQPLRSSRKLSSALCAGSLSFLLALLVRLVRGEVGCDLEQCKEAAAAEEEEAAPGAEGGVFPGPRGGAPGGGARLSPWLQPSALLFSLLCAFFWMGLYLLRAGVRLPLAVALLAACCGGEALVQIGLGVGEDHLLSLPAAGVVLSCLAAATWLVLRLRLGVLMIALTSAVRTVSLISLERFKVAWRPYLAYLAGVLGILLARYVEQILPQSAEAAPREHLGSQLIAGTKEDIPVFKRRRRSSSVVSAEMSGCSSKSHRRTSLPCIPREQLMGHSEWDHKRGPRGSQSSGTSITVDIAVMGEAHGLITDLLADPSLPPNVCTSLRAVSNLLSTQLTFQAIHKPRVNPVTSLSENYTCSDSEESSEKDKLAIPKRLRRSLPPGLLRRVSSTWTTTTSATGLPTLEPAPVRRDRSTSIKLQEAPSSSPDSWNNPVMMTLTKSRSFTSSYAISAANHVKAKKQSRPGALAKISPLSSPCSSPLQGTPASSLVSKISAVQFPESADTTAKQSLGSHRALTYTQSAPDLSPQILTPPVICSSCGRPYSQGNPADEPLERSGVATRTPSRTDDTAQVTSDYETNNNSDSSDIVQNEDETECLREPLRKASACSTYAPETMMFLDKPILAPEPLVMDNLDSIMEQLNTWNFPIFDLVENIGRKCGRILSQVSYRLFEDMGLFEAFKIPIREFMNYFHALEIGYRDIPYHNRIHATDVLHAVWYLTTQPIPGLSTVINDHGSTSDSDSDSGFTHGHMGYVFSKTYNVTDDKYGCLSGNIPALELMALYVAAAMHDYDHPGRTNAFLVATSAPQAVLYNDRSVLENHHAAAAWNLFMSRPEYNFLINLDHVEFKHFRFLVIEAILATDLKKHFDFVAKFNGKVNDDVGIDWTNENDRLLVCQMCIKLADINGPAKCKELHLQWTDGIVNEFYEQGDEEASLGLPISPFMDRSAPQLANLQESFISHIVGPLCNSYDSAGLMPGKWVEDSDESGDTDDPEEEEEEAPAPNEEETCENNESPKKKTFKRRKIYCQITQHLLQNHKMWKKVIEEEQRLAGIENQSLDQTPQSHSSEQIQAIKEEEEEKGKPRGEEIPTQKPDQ

Row | SMILES | pIC50 [1] | pIC50 [2] | pIC50 [3] | pIC50 [4] | pIC50 [5] | IC50 value on human recombinant PDE1C1, in words [6] | pIC50 [6] | Selectivity for PDE1C1 versus other PDE family members tested [6] | pIC50 [7] | other results
1 | Cc1ccc(/C(O)=C2/C(=O)C(=O)N(c3ccccc3)C2=S)cc1 [Compound B, 4-[Hydroxy(4-methylphenyl)methylidene]-1-phenyl-5-thioxopyrrolidine-2,3-dione] | < 4.00 | 4.89 | 4.11 | 4.80 | 5.03 | in the nanomolar range | 7.00 | selective versus other PDE family members tested | 4.66 | –
2 | COc1ccc(C(=O)Nc2c(Cl)cncc2Cl)cc1OC1CCCC1 [Piclamilast] | – | – | – | – | – | – | – | – | – | Block of PDE4 activity [8]: completely blocked
3 | CC(C)(C)CC(C)(C)c1ccc(OCC(=O)N/N=C/c2ccc(-c3cccc(C(=O)O)c3)o2)c([N+](=O)[O-])c1 [Compound A] | < 4.00 | < 4.00 | < 4.00 | < 4.00 | < 4.00 | in the nanomolar range | 7.08 | selective versus other PDE family members tested | < 4.00 | –
4 | CCCc1nn(C)c2c(=O)[nH]c(-c3cc(S(=O)(=O)N4CCN(C)CC4)ccc3OCC)nc12 [Sildenafil] | – | – | – | – | – | – | – | – | – | Block of PDE5 activity [9]: completely blocked
5 | COc1ccc(Cc2nc3c(ncn3C(CCCc3ccccc3)C(C)=O)c(=O)[nH]2)cc1OC (stereo not shown) [PDP] | – | – | – | – | – | – | – | – | – | Inhibition of cyclic GMP-induced cyclic AMP degrading activity increment (PDE2) [10]: completely inhibited
6 | CC1CC(=O)NN=C1c1cc(-n2ccnc2)cs1 (stereo not shown) [Motapizone] | – | – | – | – | – | – | – | – | – | Block of PDE3 activity [11]: completely blocked
